Literature values, collected in patent US8685950B2, “Use of aromatase inhibitors for treatment of ectopic pregnancy” (Wayne State University, priority 2004, dated 2014).
Counter-ions that a name gives are not always drawn.

How the values were obtained:
ectopic pregnancy = ectopic pregnancy patients
[1] = baboons; effect reversed by diethylstilbestrol
progesterone production = conditions: baboon, early pregnancy
[2] = in vivo

Question: Which “period to resolution of the pregnancy” value (ectopic pregnancy) does the source give for `CN(Cc1cnc2nc(N)nc(N)c2n1)c1ccc(C(=O)N[C@@H](CCC(=O)O)C(=O)O)cc1` [methotrexate] here?
Answer: The value was “more than three weeks in most patients”.

Question: Which “amount of estrogen and progesterone receptors” value (primate endometrium) does the source give for `C1=C(c2ccccc2)C(c2ccc(OCCN3CCCCC3)cc2)Oc2ccccc21` (stereo not drawn) [CDRI-85/287] here?
Answer: The value was “decrease the amount of both receptors”.

Question: With `CCN(CC)CCOc1ccc(C(O)(Cc2ccc(OC)cc2)c2ccccc2)cc1` (stereo not drawn) [ethamoxytriphetol] as the compound, how does the “placental progesterone formation and serum progesterone concentrations” value [1] read?
Answer: Its value is “decreased”.

Question: For `CCN(CC)CCOc1ccc(C(O)(Cc2ccc(OC)cc2)c2ccccc2)cc1` (stereo not drawn) [MER-25], which plasma progesterone (progesterone production) is on record?
Answer: Its plasma progesterone is “depression in plasma progesterone”.

Question: For `COc1ccc(C2=C(C(=O)c3ccc(OCCN4CCCC4)cc3)c3ccccc3CC2)cc1` [trioxifene mesylate], which plasma progesterone (progesterone production) is on record?
Answer: Its plasma progesterone is “no such effect was found”.

Question: Which “patients stopping the treatment because of side effects (lethargy, rashes, nausea, fever)” value [2] does the source give for `CCC1(c2ccc(N)cc2)CCC(=O)NC1=O` (stereo not drawn) [aminoglutethimide] here?
Answer: Its value is 8-15%.
